Source: patent EP0002836A1, “Acylhydrocarbylaminoalcanecarboxylic acids, their preparation and their use, and pharmaceutical compositions containing them” (Byk Gulden Lomberg Chemische Fabrik GmbH, priority 1977, dated 1979)

Legend:
[1] = system: Gallesekretion narkotisierter Ratten; test: Bile secretion (choleresis) of anaesthetised rats after intraduodenal administration; assay type: in vivo, Ratte; details: for ED50: Rattus norvegicus, 0.5 h, Ratte i.d., dose that raises bile secretion (fluid volume, 30-min fraction) by maximally 50 %; for TQ [LD50/ED50]: LD50 (Maus, i.p.) / ED50 Gallesekretion (Ratte i.d.), for Lfd.Nr. 1 the cited p.o. LD50
Description: (§1) In Tabelle II werden Untersuchungen der Gallesekretion (Cholerese) von narkotisierten Ratten nach intraduodenaler Applikation (ED50) und die letale Wirkung an der Maus (LD50) nach intraperitonealer Applikation von Vertretern der erfindungsgemäßen Verbindungen sowie der therapeutische Quotient (TQ = LD50/ED50) wiedergegeben.
(§2) Einfluß auf die Pankreas- und Gallesekretion der narkotisierten Ratte Versuchsdurchführung:
(§3) Männliche Sprague-Dawley-Ratten (250 - 300 ^g Körpergewicht) werden mit 1,2 g/kg Urethan i.m. narkotisiert. Dann wird die Bauchhöhle medial geöffnet, der Ductus choledochus kurz oberhalb seiner Mündung in das Duodenum sowie nahe der Leberpforte ligiert, beide Gangabschnitte werden leberwärts katheterisiert.
(§4) Da bei der Ratte alle Pankreaskanäle in den mittleren Abschnitt des Ductus choledochus munden,lassen sich auf diese Weise aus dem distalen (ligierten) Gangabschnitt das Pankreassekret und aus dem proximalen Teil des Ductus choledochus die Galle getrennt ableiten.
(§5) Die sezernierten Mengen an Pankreas- und Gallensaft werden in 30 min. Abständen während 2 Stunden vor bis 3 Stunden nach der intraduodenalen ([…]) Verabreichung der zu prüfenden Verbindungen (verabreichtes Flüssigkeitsvolumen 5 ml/kg) gemessen.
(§6) Die Körpertemperatur der Tiere wird mittels Heizkissen und Bestrahlung auf 36 - 38°C gehalten; die Temperaturkontrolle erfolgt rectal.
(§7) Auswertung: • Die Flüssigkeitsvolumina der 30-min.-Fraktionen nach der Substanzgabe werden jeweils auf die vor der Substanzapplikation ausgeschiedene Galle- bzw. Pankreassaftmenge (= 100 %, Mittelwert aus den beiden letzten Messungen) bezogen. Die maximale prozentuale Steigerung der Pankreas- bzw. Gallesekretion wird in Abhängigkeit von der Dosis dargestellt und daraus die ED50 durch Interpolation ermittelt.

Maus = test: Acute toxicity in mice, intraperitoneal; assay type: in vivo; details: i.p., female NMRI mice, 14 days observation
Description: (§8) Die Toxizitätsuntersuchungen werden an weiblichen NMRI-Mäusen (Körpergewicht 22 - 26 g) durchgeführt. Die Tiere (5 Tiere pro Dosis) erhalten Futter und Wasser ad libitum. Verschiedene Dosierungen der Substanzen werden intraperitoneal verabreicht. Die Beobachtungsdauer beträgt 14 Tage. Die DL50, d.h. die Dosis, bei der 50 % der Tiere sterben, wird aus der Dosiswirkungskurve ermittelt.

[2] = system: Pankreassekretion narkotisierter Ratten; test: Pancreatic secretion of anaesthetised rats after intraduodenal administration; assay type: in vivo, Ratte; details: for ED50: Rattus norvegicus, 0.5 h, Ratte, i.d., dose that raises pancreatic secretion (fluid volume, 30-min fraction) by maximally 50 %; for TQ [LD50/ED50]: LD50 (Maus, i.p.) / ED50 Pankreassekretion (Ratte, i.d.), for Lfd.Nr. 1 the cited p.o. LD50
Description: as §1, with “I” for “II”, “Pankreassekretion” for “Gallesekretion (Cholerese)”, “(^TQ” for “(TQ”
as §2, §3, §4, §5, §6, §7

[3] = system: CCl4-lebergeschädigte Ratten; test: Antihepatotoxic effect: hexobarbital sleeping time of rats after CCl4 liver damage; assay type: in vivo, Ratte; details: for TQ [LD50/ED50]: LD50 (Maus i.p.) / ED50 antihepatotoxischer Effekt (Ratte, p.o.), for Lfd.Nr. 1 the cited p.o. LD50; for ED50: Rattus norvegicus, po, Ratte, p.o., dose that shortens hexobarbital narcosis of CCl4-liver-damaged rats by 50 %, sodium salts in aqueous solution, given 1 h before CCl4, read-out: Antihepatotoxischer Effekt ED50
Description: In Tabelle III werden Untersuchungen der antihepatotoxischen Wirkung (ED50) erfindungsgemäßer Verbindungen nach oraler Applikation an wachen Ratten und die letale Wirkung nach intraperitonealer Applikation an der Maus (LD50) sowie der therapeutische Quotient (TQ = LD50/ED50) wiedergegeben.
Prüfung auf antihepatotoxische Wirkung
Einfluß auf die Hexobarbitalschlafdauer der Ratte nach CCl4-Leberschädi- gung
Versuchsdurchführung: • In Anlehnung an VOGEL et al. [Arzneim.Forsch. 25(1975)82] wird bei nüchternen weiblichen Sprague-Dawley-Ratten (190 *10 g Körpergewicht, 10 Tiere/Dosis pro Versuchsansatz) durch orale Verabreichung von Tetrachlorkohlenstoff ([…] CC14 in 2,5 ml/kg Olivenöl) ein Leberzellenschaden erzeugt, dessen Ausmaß an der Verlängerung der Hexobarbitalnatrium-Schlafdauer (50mg/ml/kg i.v.;Schwanzvene, Injektionsdauer 45 - 60 sec.) 47 Stunden nach der CC14-Gabe bestimmt wird. Die zu prüfenden Verbindungen werden eine Stunde vor der CC14-Gabe oral in einem Flüssigkeitsvolumen von 10 ml/kg verabreicht.
Auswertung: • Der antihepatotoxische Effekt der zu prüfenden Verbindungen (NatriumSalze in wäßriger Lösung) wird an der prozentualen Verkürzung der durch die CC14-Leberzellschädigung bedingten Schlafdauerverlängerung bei den behandelten Gruppen gegenüber der Schlafdauerverlängerung der CC14-Kontrollgruppe (= 100 %) gemessen. Die ED50 wurde durch Interpolation aus der Dosis-Wirkungskurve ermittelt.

[4] = Acute toxicity in mice, intraperitoneal; assay type: in vivo; details: mouse, in vivo, ip; Maus, i.p.; female NMRI mice, 14 days observation; read-out: Toxizität LD50
Description: as §8

Row | Compound | ED50 ([1]; intraduodenal) | Toxizität LD50 (Maus) | ED50 ([2]; intraduodenal) | TQ [LD50/ED50] [1] | ED50 [1] | TQ [LD50/ED50] [3] | ED50 [3] | LD50 at 336 h [4] | TQ [LD50/ED50] [2] | ED50 [2] | TQ [LD50/ED50] ([2]; listed as 1)
1 | C#CC1(N(CCCC(=O)O)C(=O)c2ccc(Cl)cc2)CCCCC1 [Beispiel 5] | 6 mg/kg |  |  |  |  |  |  |  |  |  | 
2 | CC(C)(C)CC(C)(C)N(CCCC(=O)O)C(=O)c1ccc(F)cc1 [Beispiel 16] |  | 400 mg/kg | ~10 mg/kg |  |  |  |  |  |  |  | 
3 | CC(C)(C)N(CCCC(=O)O)C(=O)c1ccc(Cl)cc1 [Lfd. Nr. 2, N-p-Chlorbenzoyl-4-(tert.-butylamino)-buttersäure] |  |  |  | > 40 | 25 mg/kg | > 10 | 100 mg/kg | > 1000 mg/kg |  |  | 
4 | C#CC(C)(C)N(CCCC(=O)O)C(=O)c1ccc(Cl)cc1 [Lfd. Nr. 3, N-p-Chlorbenzoyl-4-[(2-methyl-3-butin-2-yl)-amino]-buttersäure] |  |  |  |  |  |  |  | > 1000 mg/kg | »100 | 10 mg/kg | 
5 | C#CC(CC)(CC)N(CCCC(=O)O)C(=O)c1ccc(Cl)cc1 [Lfd. Nr. 4, N-p-Chlorbenzoyl-4-[(3-ethyl-1-pentin-3-yl)-amino]-buttersäure] |  |  |  | 43 | 18 mg/kg | 7,8 | 100 mg/kg | 780 mg/kg | 156 | 5 mg/kg | 
6 | O=C(O)CCCN(C(=O)c1ccc(Cl)cc1)C12CC3CC(CC(C3)C1)C2 [Lfd. Nr. 6, N-p-Chlorbenzoyl-4-(1-adamantyl)-aminobuttersäure] |  |  |  | 220 | 5 mg/kg | 110 | 10 mg/kg | 1100 mg/kg | ~220 | ~5 mg/kg | 
7 | CC(C)(C)CC(C)(C)N(CCCC(=O)O)C(=O)c1ccc(Cl)cc1 [Lfd. Nr. 7, N-p-Chlorbenzoyl-4-[(1.1.3.3-tetramethyl-butyl)-amino]-butter-säure] |  |  |  | 27 | 40 mg/kg | < 3,6 | > 300 mg/kg |  |  | 35 mg/kg | 31
8 | C#CC1(N(CCCC(=O)O)C(C)=O)CCCCC1 [Lfd. Nr. 8, N-Acetyl-4-[(1-ethinyl-cyclohexyl-1)-amino]-buttersäure] |  |  |  | 32 | 6 mg/kg |  |  | 190 mg/kg |  |  | 
9 | CCC(C)(C)N(CCCC(=O)O)C(=O)c1ccc(Cl)cc1Cl [Lfd. Nr. 11, N-2,4-Dichlorbenzoyl-4-[(1.1-dimethyl-propyl)-amino]-butter-säure] |  |  |  |  |  |  |  | 200 mg/kg | 200 | 1 mg/kg | 
10 | O=C(O)CCCN(Cc1ccccc1)C(=O)c1ccc(Cl)cc1 [Lfd. Nr. 15, N-p-Chlorbenzoyl-4-benzylamino-buttersäure] |  |  |  |  |  | 18,8 | 8 mg/kg | 150 mg/kg | 60 | 2.5 mg/kg | 
11 | O=C(O)CCCN(C(=O)c1ccc(Cl)cc1)C1CCCCCCC1 [Lfd. Nr. 18, N-p-Chlorbenzoyl-4-cyclooctylamino-buttersäure] |  |  |  |  |  |  |  | 350 mg/kg | 233 | 1.5 mg/kg | 
